In patent US11999745B2, “Pharmaceutical compounds” (Heptares Therapeutics Limited, priority 2020, dated 2024):

Experiments:
[1] = Hepatocyte stability, CLint (in vitro hepatocytes), rat; assay type: in vitro ADME; conditions: pooled cryopreserved hepatocytes, 1.0 million cells/mL, 37° C., read-out: in vitro intrinsic clearance (CLint)
Method: (§1) Hepatocyte stability assays were performed using pooled cryopreserved hepatocytes (Bioreclamation). Test compounds prepared in DMSO, were incubated at an initial concentration of 1 μM (0.25% DMSO final, n=2) with hepatocytes at cell densities of 1.0 million cells/mL at 37° C. Aliquots were removed at 0.5, 5, 10, 15, 30, 60 and 120 minutes for termination of reactions and compound extraction with acetonitrile containing an analytical internal standard (0.5 μM carbamazepine). Samples were centrifuged and the supernatant fractions analysed for parent compound by mass spectrometry (LC-MS/MS). The amount of compound remaining (expressed as %) was determined from the MS response in each sample relative to that in the T=0 samples (normalised for internal standard). Ln plots of the % remaining were used to determine the half-life for compound disappearance using the relationship: Half-Life(min)=−0.693/λ (where λ is the slope of the Ln % remaining vs time curve).

[2] = test system: scPCP treated female Lister Hooded rats; assay: Attenuation of sub-chronic PCP-induced deficit in the operant reversal learning task; assay type: in vivo, rat; conditions: p.o., 1 hour ptt
Method: Investigate the ability of Example 1 (1, 3, 10 and 30 mg/kg, p.o., 1 hour pre-treatment time ptt) to attenuate the disruption of a cognitive task induced by sub-chronic treatment with phencyclidine (scPCP) in female Lister Hooded rats.
Female Lister Hooded rats were used for this experiment. The average weight of rats at the time of testing was 294 g±29 g. Rats were housed in groups of 3-5 under standard laboratory conditions under a 12 hr light: dark cycle (lights on at 0700 hr), and food restricted to 90% of free-feeding bodyweight (12 g of food per rat per day). Testing was carried out in the light phase. Rats were randomly assigned to two treatment groups and received vehicle, n=8 (0.9% saline solution, i.p.) or PCP, n=48 (2 mg/kg, i.p. twice daily for 7-days). On the day of testing, rats were randomly assigned to seven treatment groups (n=6-8 per group) to receive an acute treatment with Example 1 (1, 3, 10 and 30 mg/kg, p.o., 1 hour ptt) or vehicle. […]
Following habituation to the operant chambers, rats were trained to respond for food on an FR1 (Fixed Ratio 1) schedule of reinforcement with both levers active. […] Each session lasted 20 minutes and counts were recorded on each lever. […]
The day before each reversal learning task session, a full […] operant training session (as described above) was conducted to ensure stable responding. […] During this period, responses on both correct and incorrect levers were recorded. […] Responses made on the correct and incorrect levers were again recorded. […]
Data are presented as percent correct response (±S.E.M) with values for the initial and reversal phases are presented for the different drug treatment groups (FIG. 2). The percentage correct response data were used to determine whether there was a significant effect of drug on response accuracy (e.g. that might reflect cognitive dysfunction); Statistical significance was assumed when P<0.05 and was determined using one-way ANOVA in order to detect main effect of drug treatment in the initial and reversal phases.

MDR1 (P-glycoprotein) = assay: MDCK permeability/efflux; assay type: in vitro ADME; conditions: dog
Method: MDR1-MDCK cells (Solvo Biotechnology) were seeded onto 24-well Transwell plates at 2.35×10^5 cells per well and used in confluent monolayers after a 3 day culture at 37° C. under 5% CO2. For cell types, test and control compounds (propranolol, vinblastine) were added (1 μM, 0.1% DMSO final, n=2) to donor compartments of the Transwell plate assembly in assay buffer (Hanks balanced salt solution supplemented with 25 mM HEPES, adjusted to pH 7.4) for both apical to basolateral (A>B) and basolateral to apical (B>A) measurements. Incubations were performed at 37° C., with samples removed from both donor and acceptor chambers at T=0 and 1 hour and compound analysed by mass spectrometry (LC-MS/MS) including an analytical internal standard.
Apparent permeability (Papp) values were determined from the relationship: Papp=(CompoundAcceptor T=end/(CompoundDonor×VDonorγIncubation Time)×VDonor Area×60×10^−6 cm/s
Where V is the volume of each Transwell compartment (apical 125 μL, basolateral 600 μL), and concentrations are the relative MS responses for compound (normalized to internal standard) in the donor chamber before incubation and acceptor chamber at the end of the incubation. Area=area of cells exposed for drug transfer (0.33 cm^2). Efflux ratio (Papp B>A /Papp A>B) was calculated from the mean Papp values in each direction. […] Lucifer Yellow (LY) was added to the apical buffer in all wells to assess viability of the cell layer. […] Compound recovery from the wells was determined from MS responses (normalized to internal standard) in donor and acceptor chambers at the end of incubation compared to response in the donor chamber pre-incubation.

[3] = Hepatocyte stability, CLint (in vitro hepatocytes), dog; assay type: in vitro ADME; conditions: pooled cryopreserved hepatocytes, 1.0 million cells/mL, 37° C., read-out: in vitro intrinsic clearance (CLint)
Method: as §1

[4] = Fraction unbound (fu) in plasma or brain tissue homogenate; assay type: in vitro ADME; conditions: parameter used in receptor occupancy prediction
Source text: fu—fraction of compound unbound in plasma or brain tissue homogenate

## CC(C)(C)NC(=O)C1CCN([C@H]2C[C@H]3CC[C@@H](C2)N3c2nc(C(F)(F)F)no2)CC1 [Example 1, N-tert-butyl-1-{(1R,3r,5S)-8-[3-(trifluoromethyl)-1,2,4-oxadiazol-5-yl]-8-azabicyclo[3.2.1]octan-3-yl}piperidine-4-carboxamide]
[1]
  hepatocyte CLint at 1 μM: 8 µL/min/1e6 cells
[2]; 1 mg/kg, P<0.05
  percent correct responding in the reversal phase vs scPCP group: increased percent correct responding
[2]; 3 mg/kg, P<0.05
  percent correct responding in the reversal phase vs scPCP group: increased percent correct responding
[2]; 10 mg/kg, P<0.01
  percent correct responding in the reversal phase vs scPCP group: increased percent correct responding
MDR1 (P-glycoprotein); apical to basolateral, 1 μM, pH 7.4, 1 hour, read-out: Apparent permeability (Papp) A−B
  Papp A→B at 1 h, 1 μM: 66 ×10⁻⁶ cm/s
MDR1 (P-glycoprotein); basolateral to apical, 1 μM, pH 7.4, 1 hour, read-out: Apparent permeability (Papp) B−A
  Papp B→A at 1 h, 1 μM: 77 ×10⁻⁶ cm/s
MDR1 (P-glycoprotein); pH 7.4, read-out: B−A/A−B efflux ratio
  efflux ratio at 1 h, 1 μM: 1.2
[3]
  hepatocyte CLint at 1 μM: 8 µL/min/1e6 cells
[4]
  fraction unbound: 0.682
